Assay results from BindingDB's records for patent US20250066349 (Prothena Biosciences, 2025).

Target: Dual specificity tyrosine-phosphorylation-regulated kinase 1A (Homo sapiens, UniProt Q13627)
Experiment: DYRK1A Inhibition Assay
Protocol: 1. Add 5 μL enzyme & substrate mixture to each well in Column 2-23 and A24-H24 wells of the 384-well assay plate;2. Add 5 μL 0% Phosphorylation control to A1-H1 and I24-P24 wells of the assay plate;3. Add 5 μL 100% Phosphorylation control to I1-P1 wells of the assay plate;4. Spin the assay plate (1000 rpm, 1 minute @23° C.);5. Incubate enzyme with compounds for 15 minutes at 23° C.;6. Add 5 μL ATP solution to each well of the assay plate;7. Spin the plate (1000 rpm, 1 minute @23° C.);8. Incubate the assay plate for 90 minutes at 23° C.;9. Add 10 μL Development reagent A to each well of the assay plate;10. Centrifuge the plate at 1000 rpm about 15 seconds and seal a film over assay plate. Incubate the assay plate for 30 minutes at 23° C.11. Read assay plates on Envision (see Tables A-D).

Row | IC50 [nM] | Structure (SMILES)
1 | < 10 | COC1CC=C(c2n[nH]c3ncc4ccc(-c5cnn(C)c5)cc4c23)CC1 (configuration not stated) [US20250066349, Compound I.8]
2 | < 10 | Cn1cc(-c2ccc3c(-c4ccc5cnn(C)c5c4)cnn3c2)ccc1=O [US20250066349, Compound II.1]
3 | < 10 | Cc1c(C2CCOCC2)[nH]c2ncc3ccc(-c4cnn(C)c4)cc3c12 [US20250066349, Compound I.51]
4 | < 10 | COC1CC(c2c[nH]c3ncc4ccc(-c5cnn(C)c5)cc4c23)C1 (configuration not stated) [US20250066349, Compound I.23]
5 | < 10 | Cn1cc(-c2ccc3c(-c4ccc5cnsc5c4)cnn3c2)ccc1=O [US20250066349, Compound II.2]
6 | > 1000 | COC(=O)c1ccc2c(cnc3[nH]cc(-c4ccc(F)cc4)c32)c1 [US20250066349, Compound I.4]
7 | > 5000 | N#Cc1ccc2c(c1)ncc1c(Oc3cccc(Cl)c3)cncc12 [US20250066349, Compound IV.21]
8 | > 5000 | COc1ccc(-c2ccc3c4c([nH]c(=O)c3c2)CN(C)CC4)cc1OC [US20250066349, Compound IV.24]
9 | < 500 | CN(C)CCOc1ccc2c(c1)[nH]c(=O)c1cc(-c3ccncc3)cn12 [US20250066349, Compound IV.18]

Further lines, the compound ahead of its results:

Row | Structure (SMILES) | IC50 [nM]
10 | Cn1cc(-c2ccc3cnc4[nH]cc(C5CCC5)c4c3c2)cn1 [US20250066349, Compound I.1] | < 10
11 | Cn1cc(-c2ccc3cnc4[nH]cc(C5CCC(O)CC5)c4c3c2)cn1 (configuration not stated) [US20250066349, Compound I.14] | < 10
12 | CN1CCc2c([nH]c(=O)c3cc(C4=CCOCC4)ccc23)C1 [US20250066349, Compound IV.23] | > 5000
13 | CN1CCC(C(=O)Nc2ncc(-c3ccc4oncc4c3)s2)CC1 [US20250066349, Compound III.4] | < 50
14 | COC1CCC(c2c[nH]c3ncc4ccc(-c5cnn(C)c5)cc4c23)CC1 (configuration not stated) [US20250066349, Compound I.13] | < 10
15 | Cn1cc(-c2ccc3cnc4[nH]cc(C5CCC(C(=O)O)CC5)c4c3c2)cn1 (configuration not stated) [US20250066349, Compound I.24] | < 10
16 | CC(=O)N1CCc2c(cnc3[nH]cc(-c4ccc5c(c4)OCO5)c23)C1 [US20250066349, Compound IV.6] | < 500
17 | Cc1ncc(-c2ccc3cnc4[nH]cc(C5CCCCC5)c4c3c2)s1 [US20250066349, Compound I.6] | < 10
18 | Cn1ncc2c3ccc(C#N)cc3ncc21 [US20250066349, Compound IV.14] | < 500
19 | Cn1cc(-c2ccc3cnc4[nH]cc(C5CC(O)C5)c4c3c2)cn1 (configuration not stated) [US20250066349, Compound I.18] | < 10
20 | CN1CCc2c([nH]c(=O)c3cc(C4CCOCC4)ccc23)C1 [US20250066349, Compound IV.22] | > 5000
21 | CN1CCC(C(=O)Nc2ncc(-c3ccc4c(c3)COC4=O)s2)CC1 [US20250066349, Compound III.2] | < 50
22 | CC(=O)N1CCc2c(cnc3[nH]cc(C4CCC4)c23)C1 [US20250066349, Compound IV.1] | < 500
